Patent publication US6706740B2, “Fungicidal heterocyclic aromatic amides and their compositions, methods of use and preparation” (Dow AgroSciences LLC, priority 1999, dated 2004)
Read-outs that look alike come from different tables or passages of the source.

Experiments:
[1] = test system: Phytophthora infestans (PHYTIN); assay: microbe, parasite or virus in culture; assay type: cell-based; settings: Phytophthora infestans, read-out: PHYTIN in vitro Growth Inhibition
Ustilago maydis (USTIMA) = assay: microbe, parasite or virus in culture; assay type: cell-based; settings: Mycosarcoma maydis, read-out: USTIMA in vitro Growth Inhibition
[2] = test system: Magnaporthe grisea (Pyricularia oryzae—PYRIOR); assay: microbe, parasite or virus in culture; assay type: cell-based; settings: Pyricularia oryzae, read-out: PYRIOR in vitro Growth Inhibition
[3] = test system: Stagonospora nodorum (Leptosphaeria nodorum—LEPTNO); assay: In vitro fungal growth inhibition, Stagonospora nodorum (LEPTNO); assay type: cell-based; settings: Leptosphaeria, read-out: LEPTNO in vitro Growth Inhibition
Erysiphe graminis—ERYSGT = assay: Powdery Mildew of Wheat, in vivo whole plant, 24 Hour Protectant; settings: Erysiphe, read-out: ERYSGT in vivo 1 Day Protectant
[4] = test system: Phytophthora infestans—PHYTIN; assay: whole plant or invertebrate; assay type: in vivo; settings: for pest or weed control at 100 ppm: Phytophthora, in Solanum lycopersicum, 24 h, read-out: PHYTIN in vivo 1 Day Protectant
[5] = test system: Mycosphaerella graminicola (Septoria tritici—SEPTTR); assay: In vitro fungal growth inhibition, Mycosphaerella graminicola (SEPTTR); assay type: cell-based; settings: Zymoseptoria tritici, read-out: SEPTTR in vitro Growth Inhibition
[6] = test system: Leptosphaeria nodorum—LEPTNO; assay: Glume Blotch of Wheat, in vivo whole plant, 24 Hour Protectant; settings: for pest or weed control at 100 ppm: Leptosphaeria, read-out: LEPTNO in vivo 1 Day Protectant
Septoria tritici—SEPTTR = assay: Leaf Blotch of Wheat, in vivo whole plant, 24 Hour Protectant; settings: for pest or weed control at 100 ppm: Zymoseptoria tritici, 24 h, read-out: SEPTTR in vivo 1 Day Protectant
[7] = test system: Puccinia recondita—PUCCRT; assay: Brown Rust of Wheat, in vivo whole plant, 24 Hour Protectant; settings: Puccinia, read-out: PUCCRT in vivo 1 Day Protectant
[8] = test system: Rhizoctonia solani (RHIZSO); assay: microbe, parasite or virus in culture; assay type: cell-based; settings: Rhizoctonia solani, read-out: RHIZSO in vitro Growth Inhibition
[9] = wheat plants sprayed at 100 ppm, inoculated after 24 hours, control of fungal infection vs untreated plants
[10] = 100 ppm spray, wheat, 24 hour protectant, control of fungal infection vs untreated plants
[11] = 100 ppm spray, 24 hour protectant, wheat, control of fungal infection vs untreated plants

Cc1ccc(C(=O)N[C@H]2COC(=O)[C@H](Cc3ccccc3)[C@@H](OC(=O)C(C)C)[C@H](C)OC2=O)c(O)n1 [Compound 525]
inhibition at 25 ppm [1]: < 80%
inhibition at 25 ppm (Ustilago maydis (USTIMA)): < 80%
inhibition at 25 ppm [2]: < 80%
inhibition at 25 ppm ([3]; 25 ppm in the growth medium): < 80%
pest or weed control at 100 ppm (Erysiphe graminis—ERYSGT; [9]): < 25%
pest or weed control at 100 ppm [4]: < 25%
inhibition at 25 ppm ([5]; 25 ppm in the growth medium): < 80%
LEPTNO in vivo 1 Day Protectant [6, 9]: + +
pest or weed control at 100 ppm (Septoria tritici—SEPTTR; [9]): 25 to 74%
pest or weed control at 100 ppm [7, 9]: 25 to 74%
melting point: 247 to 250 °C
inhibition at 25 ppm [8]: < 80%

CC(C)(C)CNC(=O)c1cccnc1O [Compound 514]
inhibition at 25 ppm [1]: < 80%
inhibition at 25 ppm (Ustilago maydis (USTIMA)): < 80%
inhibition at 25 ppm [2]: < 80%
inhibition at 25 ppm ([3]; 25 ppm in the growth medium): < 80%
pest or weed control at 100 ppm (Erysiphe graminis—ERYSGT; [9]): < 25%
pest or weed control at 100 ppm [4]: < 25%
inhibition at 25 ppm ([5]; 25 ppm in the growth medium): < 80%
pest or weed control at 100 ppm [6, 9]: 25 to 74%
pest or weed control at 100 ppm (Septoria tritici—SEPTTR; [9]): < 25%
pest or weed control at 100 ppm [7, 9]: < 25%
melting point: 180 to 181 °C
inhibition at 25 ppm [8]: < 80%

COc1ccnc(C(=O)Nc2ccc(Sc3cccc(C(F)(F)F)c3)cc2)c1O [Compound 445]
inhibition at 25 ppm [1]: < 80%
inhibition at 25 ppm (Ustilago maydis (USTIMA)): > 80%
inhibition at 25 ppm [2]: > 80%
inhibition at 25 ppm ([3]; 25 ppm in growth medium): < 80%
pest or weed control at 100 ppm (Erysiphe graminis—ERYSGT; [10]): 25 to 74%
pest or weed control at 100 ppm [4]: < 25%
inhibition at 25 ppm ([5]; 25 ppm in growth medium): > 80%
LEPTNO in vivo 1 Day Protectant [6, 10]: + +
pest or weed control at 100 ppm (Septoria tritici—SEPTTR; [10]): 25 to 74%
pest or weed control at 100 ppm [7, 10]: 25 to 74%
melting point: 167 to 169 °C
inhibition at 25 ppm [8]: < 80%

COc1ccnc(C(=O)NC2CCN(Cc3ccccc3)CC2)c1O.O=C(O)/C=C\C(=O)O [Compound 305]
inhibition at 25 ppm [1]: < 80%
inhibition at 25 ppm (Ustilago maydis (USTIMA)): < 80%
inhibition at 25 ppm [2]: < 80%
inhibition at 25 ppm [3]: < 80%
pest or weed control at 100 ppm (Erysiphe graminis—ERYSGT; 24 h): < 25%
PHYTIN in vivo 1 Day Protectant ([4]; 100 ppm spray, 24 hour protectant, tomato, control of fungal infection vs untreated plants): + +
inhibition at 25 ppm [5]: < 80%
pest or weed control at 100 ppm ([6]; 24 h): < 25%
pest or weed control at 100 ppm (Septoria tritici—SEPTTR): < 25%
pest or weed control at 100 ppm ([7]; 24 h): < 25%
melting point: 145 to 147 °C
inhibition at 25 ppm [8]: < 80%

COc1ccnc(C(=O)N[C@H]2COC(=O)[C@H](Oc3ccccc3)[C@@H](OC(=O)C(C)C)[C@H](C)OC2=O)c1O [Compound 403]
inhibition at 25 ppm [1]: < 80%
inhibition at 25 ppm (Ustilago maydis (USTIMA)): < 80%
inhibition at 25 ppm [2]: < 80%
inhibition at 25 ppm ([3]; 25 ppm in growth medium): > 80%
pest or weed control at 100 ppm (Erysiphe graminis—ERYSGT; [10]): < 25%
pest or weed control at 100 ppm [4]: < 25%
inhibition at 25 ppm ([5]; 25 ppm in growth medium): > 80%
LEPTNO in vivo 1 Day Protectant [6, 10]: + +
pest or weed control at 100 ppm (Septoria tritici—SEPTTR; [10]): 25 to 74%
pest or weed control at 100 ppm [7, 10]: 25 to 74%
melting point: 194 to 195 °C
inhibition at 25 ppm [8]: < 80%

CC1(C)CC(NC(=O)c2cnccc2O)CC(C)(C)C1 [Compound 502]
inhibition at 25 ppm [1]: < 80%
inhibition at 25 ppm (Ustilago maydis (USTIMA)): < 80%
inhibition at 25 ppm [2]: < 80%
inhibition at 25 ppm ([3]; 25 ppm in the growth medium): < 80%
pest or weed control at 100 ppm (Erysiphe graminis—ERYSGT; [9]): < 25%
pest or weed control at 100 ppm [4]: < 25%
inhibition at 25 ppm ([5]; 25 ppm in the growth medium): < 80%
pest or weed control at 100 ppm [6, 9]: 25 to 74%
pest or weed control at 100 ppm (Septoria tritici—SEPTTR; [9]): 25 to 74%
pest or weed control at 100 ppm [7, 9]: 25 to 74%
melting point: 232 to 235 °C (dec.)
inhibition at 25 ppm [8]: < 80%

CC(=O)OC1CCC(NC(=O)c2ncccc2O)CC1 (stereo not drawn) [Compound 209]
inhibition at 25 ppm [1]: < 80%
inhibition at 25 ppm (Ustilago maydis (USTIMA)): < 80%
inhibition at 25 ppm [2]: < 80%
inhibition at 25 ppm ([3]; 25 ppm in growth medium): < 80%
pest or weed control at 100 ppm (Erysiphe graminis—ERYSGT; [11]): < 25%
pest or weed control at 100 ppm [4]: < 25%
inhibition at 25 ppm ([5]; 25 ppm in growth medium): < 80%
pest or weed control at 100 ppm [6, 11]: < 25%
pest or weed control at 100 ppm (Septoria tritici—SEPTTR; [11]): 25 to 74%
pest or weed control at 100 ppm [7, 11]: < 25%
melting point: 123 to 126 °C
inhibition at 25 ppm [8]: < 80%

Br.COc1ccnc(C(=O)NC2C[C@@H](Cc3ccccc3)O[C@@H](C)C2)c1O (stereo partly drawn) [Compound 311]
inhibition at 25 ppm [1]: < 80%
inhibition at 25 ppm (Ustilago maydis (USTIMA)): < 80%
inhibition at 25 ppm [2]: < 80%
inhibition at 25 ppm [3]: < 80%
pest or weed control at 100 ppm (Erysiphe graminis—ERYSGT; 24 h): < 25%
pest or weed control at 100 ppm [4]: < 25%
inhibition at 25 ppm [5]: < 80%
pest or weed control at 100 ppm ([6]; 24 h): 25 to 74%
SEPTTR in vivo 1 Day Protectant (Septoria tritici—SEPTTR; in vivo): + +
pest or weed control at 100 ppm ([7]; 24 h): 25 to 74%
melting point: 156 to 158 °C
inhibition at 25 ppm [8]: < 80%

CC1(C)CC(NC(=O)c2cn(-c3ccccc3)nc2O)CC(C)(C)C1 [Compound 559]
inhibition at 25 ppm [1]: < 80%
inhibition at 25 ppm (Ustilago maydis (USTIMA)): < 80%
inhibition at 25 ppm [2]: < 80%
inhibition at 25 ppm ([3]; 25 ppm in the growth medium): < 80%
pest or weed control at 100 ppm (Erysiphe graminis—ERYSGT; [9]): < 25%
pest or weed control at 100 ppm [4]: < 25%
inhibition at 25 ppm ([5]; 25 ppm in the growth medium): < 80%
pest or weed control at 100 ppm [6, 9]: 25 to 74%
pest or weed control at 100 ppm (Septoria tritici—SEPTTR; [9]): < 25%
pest or weed control at 100 ppm [7, 9]: 25 to 74%
melting point: 215 to 217 °C
inhibition at 25 ppm [8]: < 80%

O=C(NCc1cccc(Cl)c1)c1ncccc1O [Compound 219]
inhibition at 25 ppm [1]: > 80%
inhibition at 25 ppm (Ustilago maydis (USTIMA)): > 80%
inhibition at 25 ppm [2]: > 80%
inhibition at 25 ppm ([3]; 25 ppm in growth medium): > 80%
pest or weed control at 100 ppm (Erysiphe graminis—ERYSGT; [11]): < 25%
pest or weed control at 100 ppm [4]: < 25%
inhibition at 25 ppm ([5]; 25 ppm in growth medium): > 80%
pest or weed control at 100 ppm [6, 11]: < 25%
pest or weed control at 100 ppm (Septoria tritici—SEPTTR; [11]): < 25%
pest or weed control at 100 ppm [7, 11]: < 25%
melting point: 65 to 67 °C
inhibition at 25 ppm [8]: > 80%

COc1ccnc(C(=O)Nc2ccc(Cc3cccc(C(F)(F)F)c3)cc2)c1O [Compound 404]
inhibition at 25 ppm [1]: < 80%
inhibition at 25 ppm (Ustilago maydis (USTIMA)): > 80%
inhibition at 25 ppm [2]: < 80%
inhibition at 25 ppm ([3]; 25 ppm in growth medium): < 80%
pest or weed control at 100 ppm (Erysiphe graminis—ERYSGT; [10]): 25 to 74%
pest or weed control at 100 ppm [4]: < 25%
inhibition at 25 ppm ([5]; 25 ppm in growth medium): < 80%
pest or weed control at 100 ppm [6, 10]: 25 to 74%
pest or weed control at 100 ppm (Septoria tritici—SEPTTR; [10]): 25 to 74%
pest or weed control at 100 ppm [7, 10]: 25 to 74%
melting point: 126 to 127 °C
inhibition at 25 ppm [8]: < 80%
